From PMC6335200 (Journal of medicinal chemistry, 2018)

Tests used:
[1] = tested on: EBOV (Kikwit isolate)
[2] = molecular target: T1, GAK (Homo sapiens, UniProt O14976); settings: read-out: GAK affinity Kd; cited from earlier work
T1 sequence (O14976 1-1311): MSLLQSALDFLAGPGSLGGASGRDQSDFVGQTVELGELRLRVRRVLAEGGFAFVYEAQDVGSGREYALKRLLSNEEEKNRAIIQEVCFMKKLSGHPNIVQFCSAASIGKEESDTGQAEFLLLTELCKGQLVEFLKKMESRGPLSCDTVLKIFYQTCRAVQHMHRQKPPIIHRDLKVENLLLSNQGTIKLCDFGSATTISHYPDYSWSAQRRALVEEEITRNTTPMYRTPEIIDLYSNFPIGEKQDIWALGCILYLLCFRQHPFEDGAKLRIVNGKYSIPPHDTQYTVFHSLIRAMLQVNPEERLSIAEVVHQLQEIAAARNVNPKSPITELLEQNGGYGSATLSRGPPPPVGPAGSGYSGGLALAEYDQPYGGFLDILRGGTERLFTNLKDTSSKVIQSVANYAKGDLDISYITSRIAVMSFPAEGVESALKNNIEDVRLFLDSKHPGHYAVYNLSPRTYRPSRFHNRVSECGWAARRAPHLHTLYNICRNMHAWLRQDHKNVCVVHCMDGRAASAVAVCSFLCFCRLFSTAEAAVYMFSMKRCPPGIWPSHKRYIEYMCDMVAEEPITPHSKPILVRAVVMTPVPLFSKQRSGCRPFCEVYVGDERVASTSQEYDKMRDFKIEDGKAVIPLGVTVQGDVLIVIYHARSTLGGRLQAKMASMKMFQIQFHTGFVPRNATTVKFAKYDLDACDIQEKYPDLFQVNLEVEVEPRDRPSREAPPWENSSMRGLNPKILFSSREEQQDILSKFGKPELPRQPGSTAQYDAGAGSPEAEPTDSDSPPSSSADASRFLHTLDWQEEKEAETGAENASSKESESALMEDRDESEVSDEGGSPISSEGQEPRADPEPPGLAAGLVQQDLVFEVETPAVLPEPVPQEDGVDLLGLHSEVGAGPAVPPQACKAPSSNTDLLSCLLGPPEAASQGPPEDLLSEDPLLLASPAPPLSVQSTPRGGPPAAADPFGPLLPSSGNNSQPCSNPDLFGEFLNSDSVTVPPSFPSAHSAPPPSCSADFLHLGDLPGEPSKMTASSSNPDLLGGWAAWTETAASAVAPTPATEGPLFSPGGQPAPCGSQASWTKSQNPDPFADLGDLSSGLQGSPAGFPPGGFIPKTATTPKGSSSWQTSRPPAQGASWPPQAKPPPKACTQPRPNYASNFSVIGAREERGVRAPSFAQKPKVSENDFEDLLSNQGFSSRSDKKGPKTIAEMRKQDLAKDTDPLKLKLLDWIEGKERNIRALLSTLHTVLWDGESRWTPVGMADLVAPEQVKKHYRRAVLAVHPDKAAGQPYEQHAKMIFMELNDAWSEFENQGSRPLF

[3] = tested on: EBOV (Kikwit isolate); experiment: microbe, parasite or virus in culture; settings: Zaire ebolavirus, Huh-7, 48 h, read-out: EBOV antiviral activity EC50
[4] = tested on: AP2M1 phosphorylation; experiment: AP2M1 phosphorylation by Western analysis in Huh7 cells; type: cell-based, Human; settings: calyculin A 30 minutes before lysis
[5] = tested on: CHIKV (strain AF15561); type: cell-based, Chikungunya virus

SMILES | anti-EBOV activity (in words) [1] | Kd [2] | EC50 [3] | effect on AP2M1 phosphorylation (in words) [4] | effect on CHIKV infection (in words) [5]
COc1cc(-c2cnc3c(N4CCOCC4)snc3c2)ccc1N [Compound 4] | no anti-EBOV activity beyond cytotoxicity | 8 nM |  |  | 
COc1cc(-c2cnc3c(N4C[C@@H](C)O[C@@H](C)C4)snc3c2)ccc1N [Compound 12r, 4-(3-(cis-2,6-Dimethylmorpholino)isothiazolo[4,3-b]pyridin-6-yl)-2-methoxyaniline] |  |  | ~2000 nM | reduced AP2M1 phosphorylation | dose-dependent decrease in CHIKV infection
